ChEMBL document CHEMBL3351537, “Design, synthesis and biological evaluation of 4-fluoropyrrolidine-2-carbonitrile and octahydrocyclopenta[b]pyrrole-2-carbonitrile derivatives as dipeptidyl peptidase IV inhibitors” (Eur J Med Chem, 2014)

Key:
Dipeptidyl peptidase 2 = Dipeptidyl peptidase 2 (Homo sapiens, UniProt Q9UHL4); assay: Inhibition of DPP7 (unknown origin) expressed in baculovirus expression system using Nle-Pro-AMC as substrate by continuous fluorometric assay
Prolyl endopeptidase FAP = target: T1, Prolyl endopeptidase FAP (Homo sapiens, UniProt Q12884); assay: Inhibition of FAP (unknown origin) expressed in baculovirus expression system using Nle-Pro-AMC as substrate by continuous fluorometric assay
T1 sequence (Q12884 whole entry): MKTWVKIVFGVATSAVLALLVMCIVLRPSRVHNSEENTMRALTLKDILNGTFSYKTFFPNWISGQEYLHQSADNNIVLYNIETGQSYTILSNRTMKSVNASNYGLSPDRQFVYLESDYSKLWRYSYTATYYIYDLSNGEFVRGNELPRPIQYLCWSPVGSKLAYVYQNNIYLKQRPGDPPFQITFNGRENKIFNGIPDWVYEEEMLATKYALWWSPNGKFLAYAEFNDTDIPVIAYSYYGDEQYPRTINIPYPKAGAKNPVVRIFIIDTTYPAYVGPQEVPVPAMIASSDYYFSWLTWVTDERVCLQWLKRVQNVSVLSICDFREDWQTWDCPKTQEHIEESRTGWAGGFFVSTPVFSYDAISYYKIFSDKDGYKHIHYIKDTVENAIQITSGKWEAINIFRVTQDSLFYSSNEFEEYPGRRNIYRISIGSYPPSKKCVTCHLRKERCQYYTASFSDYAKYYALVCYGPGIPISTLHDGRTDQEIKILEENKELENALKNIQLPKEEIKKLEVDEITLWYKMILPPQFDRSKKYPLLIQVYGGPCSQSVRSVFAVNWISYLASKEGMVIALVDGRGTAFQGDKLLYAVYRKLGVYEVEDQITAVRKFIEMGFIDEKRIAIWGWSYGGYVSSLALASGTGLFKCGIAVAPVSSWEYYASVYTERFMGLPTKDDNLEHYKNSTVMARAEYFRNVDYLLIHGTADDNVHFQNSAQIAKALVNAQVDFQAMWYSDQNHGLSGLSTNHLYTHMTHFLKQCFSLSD

Dipeptidyl peptidase 4 = Dipeptidyl peptidase 4 (Homo sapiens, UniProt P27487); assay: Inhibition of human recombinant DPP4 expressed in baculovirus expression system using Ala-Pro-AMC as substrate by continuous fluorometric assay
Dipeptidyl peptidase 9 = Dipeptidyl peptidase 9 (Homo sapiens, UniProt Q86TI2); assay: Inhibition of DPP9 (unknown origin) expressed in baculovirus expression system using Ala-Pro-AMC as substrate by continuous fluorometric assay
Dipeptidyl peptidase 9, sequence (Q86TI2 whole entry): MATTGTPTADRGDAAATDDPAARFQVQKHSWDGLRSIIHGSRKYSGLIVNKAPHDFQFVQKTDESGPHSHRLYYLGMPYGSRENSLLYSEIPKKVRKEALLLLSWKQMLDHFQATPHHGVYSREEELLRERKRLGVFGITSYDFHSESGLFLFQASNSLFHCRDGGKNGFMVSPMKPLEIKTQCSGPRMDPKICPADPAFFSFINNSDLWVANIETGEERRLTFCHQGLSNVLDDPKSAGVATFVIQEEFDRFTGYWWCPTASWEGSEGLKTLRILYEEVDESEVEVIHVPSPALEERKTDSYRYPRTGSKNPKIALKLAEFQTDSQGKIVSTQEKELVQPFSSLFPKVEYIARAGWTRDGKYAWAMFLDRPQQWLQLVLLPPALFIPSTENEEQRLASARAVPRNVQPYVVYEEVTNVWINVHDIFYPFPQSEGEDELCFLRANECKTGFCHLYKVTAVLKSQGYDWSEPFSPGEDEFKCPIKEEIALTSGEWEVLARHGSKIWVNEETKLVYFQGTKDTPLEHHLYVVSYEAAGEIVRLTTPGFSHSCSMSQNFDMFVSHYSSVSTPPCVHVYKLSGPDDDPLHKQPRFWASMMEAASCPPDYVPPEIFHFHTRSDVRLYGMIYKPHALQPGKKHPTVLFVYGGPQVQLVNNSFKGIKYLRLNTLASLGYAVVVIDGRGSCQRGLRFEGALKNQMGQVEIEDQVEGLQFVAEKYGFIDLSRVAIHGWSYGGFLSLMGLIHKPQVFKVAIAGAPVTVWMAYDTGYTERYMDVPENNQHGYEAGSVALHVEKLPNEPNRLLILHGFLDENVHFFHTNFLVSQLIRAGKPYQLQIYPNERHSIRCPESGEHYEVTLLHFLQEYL

Dipeptidyl peptidase 4, sequence (P27487 whole entry): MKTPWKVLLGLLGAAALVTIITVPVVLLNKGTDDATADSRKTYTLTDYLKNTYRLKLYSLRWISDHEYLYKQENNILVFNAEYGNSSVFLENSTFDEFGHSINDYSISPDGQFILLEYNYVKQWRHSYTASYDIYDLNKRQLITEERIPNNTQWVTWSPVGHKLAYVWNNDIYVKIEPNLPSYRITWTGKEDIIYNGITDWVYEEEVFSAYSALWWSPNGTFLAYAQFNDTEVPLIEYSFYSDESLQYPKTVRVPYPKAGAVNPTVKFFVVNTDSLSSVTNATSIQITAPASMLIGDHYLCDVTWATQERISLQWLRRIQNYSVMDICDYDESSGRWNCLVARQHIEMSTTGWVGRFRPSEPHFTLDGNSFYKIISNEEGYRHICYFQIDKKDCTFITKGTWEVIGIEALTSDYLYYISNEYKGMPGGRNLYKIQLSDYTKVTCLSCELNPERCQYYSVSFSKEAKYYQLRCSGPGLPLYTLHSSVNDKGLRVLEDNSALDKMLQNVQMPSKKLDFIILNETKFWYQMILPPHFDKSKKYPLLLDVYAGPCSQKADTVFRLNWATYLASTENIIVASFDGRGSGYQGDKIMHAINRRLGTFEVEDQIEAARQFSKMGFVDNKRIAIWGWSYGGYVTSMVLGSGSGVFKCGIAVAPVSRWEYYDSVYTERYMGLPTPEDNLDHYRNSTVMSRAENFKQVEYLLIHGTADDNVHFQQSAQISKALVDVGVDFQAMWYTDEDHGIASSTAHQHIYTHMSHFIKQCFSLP

**Q.** Which IC50 (Dipeptidyl peptidase 2) does the source give for N#C[C@@H]1C[C@@H]2CCC[C@@H]2N1C(=O)C[C@H](N)Cc1ccccc1Cl here?
**A.** Not Active

**Q.** What does the source list for N#C[C@@H]1C[C@@H]2CCC[C@@H]2N1C(=O)C[C@H](N)Cc1cccc(F)c1?
**A.** IC50 (Dipeptidyl peptidase 2): Not Active; IC50 (Prolyl endopeptidase FAP): Not Active

**Q.** N#C[C@@H]1C[C@H](F)CN1C(=O)C[C@H](N)Cc1ccccc1 was tested. Which IC50 (Dipeptidyl peptidase 2) did it give?
**A.** Not Active

**Q.** N#C[C@@H]1C[C@@H]2CCC[C@@H]2N1C(=O)C[C@H](N)Cc1ccc(F)cc1 was tested. Which IC50 (Prolyl endopeptidase FAP; read-out: IC50) did it give?
**A.** 154 µM

**Q.** With COc1ccc(C[C@@H](N)CC(=O)N2[C@H](C#N)C[C@@H]3CCC[C@@H]32)cc1 as the compound, how does the IC50 (Dipeptidyl peptidase 4) read?
**A.** Not Active

**Q.** How did the IC50 (Dipeptidyl peptidase 2) turn out when Cc1ccccc1C[C@@H](N)CC(=O)N1[C@H](C#N)C[C@@H]2CCC[C@@H]21 was run?
**A.** Not Active

**Q.** And the IC50 (Prolyl endopeptidase FAP; read-out: IC50)?
**A.** 110 µM

**Q.** N#C[C@@H]1C[C@H](F)CN1C(=O)C[C@H](N)Cc1ccc(Cl)c(Cl)c1 was tested. Which IC50 (Dipeptidyl peptidase 9) did it give?
**A.** 0.23 µM
